One experiment has as its system C57Bl/6J mice. In words: Oral glucose tolerance test in mice (with sitagliptin). Format: in vivo. The note with it: glucose 2 g/kg, FIG. 1. The procedure: C57Bl/6J mice were fasted for 6 hours prior to drug administration. Blood glucose was measured after the 6 hour fast (T30 min), and animals were sorted into groups evenly matched for fasting glucose levels. At T30, drug suspension was administered to the mice by oral gavage. Glucose was administered at TO min at 2 g/kg. The administration volume was 5 mL/kg of body weight. Blood was sampled at TO, prior to glucose administration, then at 15, 30, 60, 90 and 120 min after glucose administration for measurement of glucose by glucometer. 10 mice were used for each dose group. The formulation of 5-Ethyl-2-{4-[4-(4-tetrazol-1-yl-phenoxymethyl)-thiazol-2-yl]-piperidin-1-yl}-pyrimidine and sitagliptin was 1% carboxymethylcellulose, 2% Tween 80 prepared in a manner essentially as described in Example 2. The formulation was a suspension and was continuously stirred during dosing of the animals.
Glucose levels were plotted against time and the incremental area under the curve (AUC) of the glucose excursion was determined from T0 to T120 using GraphPad Prism 5.1. Statistical significance of differences in AUC between compound treatment and vehicle was determined by non-parametric Kruskal-Wallis test with Dunn's post test. […] Statistical differences in the glucose levels at each time point during OGTT were determined by two way ANOVA with Bonferroni's post test. […]

The subject of the next experiment is mice. Briefly: Incretin secretion of mice, dose response on top of sitagliptin. Particulars: increasing dosages (1, 3, 10, 30 and 300 mg/kg) given in addition to sitapliptin at 100 mg/kg, 10 minutes after glucose, FIG. 5a. Format: in vivo. The procedure:
5-Ethyl-2-{4-[4-(4-tetrazol-1-yl-phenoxymethyl)-thiazol-2-yl]-piperidin-1-yl}-pyrimidine, sitagliptin, and vildagliptin were prepared as in Examples 1 and 2.
Mice were fasted for 6 h prior to drug administration. Blood glucose was measured after the 6 h fast (T30 min), and animals were sorted into 6 groups evenly matched for fasting glucose levels and body weight. At T30 min, drug suspension as prepared in Example 1 herein, was administered to the mice by oral gavage. All groups were given sitagliptin at 100 mg/kg, and Compound 1 was given at 1, 3, 10, 30 and 300 mg/kg. 100 mg/kg sitagliptin was chosen since this dose is greater than that required to achieve 80% DPP-IV inhibition in mice over the time period evaluated in this study. (Kim et al, 2005). Glucose (2 g/kg) was administered by oral gavage at T0. Animals were anesthetized and blood drawn by terminal cardiac puncture 10 minutes after glucose administration. To address the effects on incretin production, total GIP levels were measured. […] The DPP-IV inhibitor sitagliptin was co-administered to prevent breakdown of active GLP-1 by DPP-IV (Kim et al; 2005). Statistical significance of differences in GLP-1, GIP and glucose levels between compound+sitagliptin treatment and sitagliptin alone was determined by one way ANOVA with Dunnet's post test. Differences with a p value less than 0.05 were considered significant. […]

For `CCc1cnc(N2CCC(c3nc(COc4ccc(-n5cnnn5)cc4)cs3)CC2)nc1` [5-Ethyl-2-{4-[4-(4-tetrazol-1-yl-phenoxymethyl)-thiazol-2-yl]-piperidin-1-yl}-pyrimidine], the “incremental AUC of the glucose excursion T0 to T120” value in the experiment on C57Bl/6J mice (compound only at 30 mg/kg oral gavage) is on record as “approximately 3200 mg.min/dl”. The “secretion of active GLP-1” value with mice is reported as “stimulated secretion of active GLP-1”.

`N[C@@H](CC(=O)N1CCn2c(nnc2C(F)(F)F)C1)Cc1cc(F)c(F)cc1F` [sitagliption, sitagliptin, reference compound]: the “incremental AUC of the glucose excursion T0 to T120” value in the experiment with C57Bl/6J mice (sitagliptin alone at 10 mg/kg oral gavage) is “approximately 2800 mg.min/dl”.

For the origin of these results see patent US20090270404A1, “OXYMETHYLENE ARYL COMPOUNDS AND USES THEREOF” (Metabolex, Inc., priority 2008, published 2009).
